From patent publication US20240148821A1, “PHARMACEUTICAL USE OF CYCLIC PEPTIDE COMPOUND” (CHUGAI SEIYAKU KABUSHIKI KAISHA, priority 2021, published 2024)
Bridge positions count the residues as written; N and C are the ends. Square brackets hold non-standard residues; d marks the D form. Peptide text beside a SMILES is read from it. * marks the point of attachment. hPhe(3,5-F2-4-CF3) = N[C@@H](CCc1cc(F)c(C(F)(F)F)c(F)c1)C(=O)O; hPhe(3-Cl-4-CF3) = N[C@@H](CCc1ccc(C(F)(F)F)c(Cl)c1)C(=O)O; hPhe(3-F,4-CF3) = N[C@@H](CCc1ccc(C(F)(F)F)c(F)c1)C(=O)O; NMePhe(4-Me) = CN[C@@H](Cc1ccc(C)cc1)C(=O)O; NMeGly(cPent) = CN[C@H](C(=O)O)C1CCCC1; NMeCha = CN[C@@H](CC1CCCCC1)C(=O)O; Hyp = O=C(O)[C@@H]1C[C@@H](O)CN1; NMeI = CC[C@H](C)[C@H](NC)C(=O)O; NMeD = CN[C@@H](CC(=O)O)C(=O)O; NMeL = CN[C@@H](CC(C)C)C(=O)O; NMeC = CN[C@@H](CS)C(=O)O; NMeS = CN[C@@H](CO)C(=O)O; Morpholide = C1CN(*)CCO1; NMeA = CN[C@@H](C)C(=O)O; Ac5c = NC1(C(=O)O)CCCC1; Aze = O=C(O)[C@@H]1CCN1; Sar = CNCC(=O)O; Propyl = CCC*

Tests used:
[1] = test system: Human pancreatic cancer cell line AsPC-1 (G12D mutation Kras); test: AsPC-1 cell growth inhibition (AsPC-1 CGI); type: cell-based; conditions: read-out: AsPC-1 cell growth inhibition, 50% growth inhibitory concentration (IC50 value); 96 hours, CellTiter-Glo, values classified in ranges
Protocol: Test compounds were serially dilated with dimethyl sulfoxide, and 200 nL was then dispensed to a U-bottom 96-well plate using Labcyte Echo. […] The cell suspension was dispensed to a. plate containing a test compound at 100 μL per well and incubated at 37° C. in a 5% carbon dioxide gas incubator. 96 hours later, 80 μL of CellTiter-Glo (Promega) was added to each well and fluorescence was measured.

[2] = target: protein-protein interaction between Kras and SOS1 (biotin-tagged human Kras loaded with GDP, His-tagged human SOS1) (Homo sapiens (Human), UniProt P01116, G12D); test: Protein-protein interaction inhibition between Kras and SOS1 (KrasG12D-SOS PPI) using AlphaScreen; type: biochemical; conditions: AlphaScreen; biotin-tagged human Kras loaded with GDP, His-tagged human SOS1; read-out: KRAS G12D-SOS PPI IC50;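 also: kras produced in E. coli, Ni-coupled donor beads and streptavidin acceptor beads, excitation 680 nm with emission detected at 520–620 nm via singlet oxygen transfer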
[3] = test system: various cancer cell lines (Ras mutation or amplification); test: Measurement of cell growth inhibitory activity against various cancer cell lines (CellTiter-Glo); type: cell-based, human
Protocol: Various cancer cell lines used were purchased from commercial suppliers. […] The cell suspension and culture medium supplemented with serum were dispensed to a plate containing the test compounds at 40 μL (384 well plate) or 200 μL (96 well plate) per well and incubated in a carbon dioxide gas incubator. […] Six days or seven days after the start of cultivation, 20 μL of CellTiter-Glo (Promega) was added to each well and fluorescence was measured.

[4] = test system: large bowel carcinoma cell line LS 180; test: In vivo antitumor activity, mouse xenograft model, LS 180; conditions: LS 180 (Colon) xenograft, 7 days
Source text: (§1) Tumor growth inhibition rate (TGI %)=(1−TV/CV)×100

[5] = test system: non-small cell lung cancer cell line NC1-1441 with a KRAS mutation; test: In vivo antitumor activity, mouse xenograft model, NCI-H441; conditions: NCI-H441 (NSCLC) xenograft, 14 days
Source text: as §1

[6] = A4/Fuk, Non-Hodgkin lymphoma, KRAS Amp
[7] = MIA PaCa-2, Pancreas, KRAS G12C

With CC[C@H](C)[C@@H]1NC(=O)[C@H](CC(C)C)N(C)C(=O)C[C@@H](C(=O)N2CCOCC2)N(C)C(=O)[C@H](C2CCCC2)N(C)C(=O)C2(CCCC2)NC(=O)[C@@H]2CCCN2C(=O)[C@H](CCc2ccc(C(F)(F)F)c(Cl)c2)NC(=O)CN(C)C(=O)[C@H](CC2CCCCC2)N(C)C(=O)[C@@H]2CCN2C(=O)[C@H](C)N(C)C1=O [Compound 926, (5S,8S,11S,15S,18S,23aS,29S,35S,37aS)-8-((S)-sec-butyl)-29-(3-chloro-4-(trifluoromethyl)phenethyl)-35-(cyclohexylmethyl)-18-cyclopentyl-11-isobutyl-5,6,12,16,19,33,36-heptamethyl-15-(morpholine-4-carbonyl)docosahydro-2H,4H-spiro[azeto[2,1-u]pyrrolo[2,1-i][1,4,7,10,13,16,19,22,25,28,31]undecaazacyclotetratriacontine-21,1′-cyclopentan]-4,7,10,13,17,20,23,28,31,34,37(14H,22H)-undecaone] ([NMeL]I[NMeA][Aze][NMeCha][Sar][hPhe(3-Cl-4-CF3)]P[Ac5c][NMeGly(cPent)][NMeD]-Morpholide; lactam N-11) the IC50 [1] was ≤ 20 nM, the IC50 [2] was 0.99 nM and the IC50 [3, 6] was 1.28 nM. The IC50 ([3]; A549, NSCLC, KRAS G12S) was 1.09 nM, the IC50 ([3]; AGS, Stomach, KRAS G12D) was 1.46 nM and the IC50 ([3]; AsPC-1, Pancreas, KRAS G12D) was 3.33 nM. The IC50 ([3]; KURAMOCHI, Ovary, KRAS Amp) was 7.89 nM, the IC50 ([3]; LS 180, Colon, KRAS G12D) was 5.39 nM and the IC50 [3, 7] was 8.93 nM. It also gave an IC50 ([3]; NCI-H441, NSCLC, KRAS G12V) of 2.87 nM, an IC50 ([3]; NCI-H929, Myeloma, NRAS G13D) of 18.8 nM and an IC50 ([3]; NOMO-1, AML, KRAS G13D) of 29.1 nM. For the same compound, the IC50 ([3]; SNU-1, Stomach, KRAS G12D) was 2.74 nM, the IC50 ([3]; SW480, Colon, KRAS G12V) was 56.7 nM and the “TGI (%)” value ([4]; 15 mg/kg once daily) was 29%. For the same compound, the “TGI (%)” value ([4]; 30 mg/kg once daily) was 75%.

In the case of CCO[C@@H]1C[C@H]2C(=O)NC3(CCCC3)C(=O)N(C)[C@@H](C3CCCC3)C(=O)N(C)[C@H](C(=O)N(C)C)CC(=O)N(C)[C@@H](CC(C)C)C(=O)N[C@@H]([C@@H](C)CC)C(=O)N(C)[C@@H](C)C(=O)N3CC[C@H]3C(=O)N(C)[C@@H](CC3CCCCC3)C(=O)N(C)CC(=O)N[C@@H](CCc3cc(F)c(C(F)(F)F)c(F)c3)C(=O)N2C1 [Compound 1201, (5S,8S,11S,1S,18S,23aS,25R,29S,35S,37aS)-8-((S)-sec-butyl)-35-(cyclohexymethyl)-18-cyclopentyl-29-(3,5-difluoro-4-(trifluoromethyl)phenethyl)-25-ethoxy-11-isobutyl-N,N,5,6,12,16,19,33,36-nonamethyl-4,7,10,13,17,20,23,28,31,34,37-undecaoxotetratriacontahydro-2H,4H-spiro[azeto[2,1-u]pyrrolo[2,1-i][1,4,7,10,13,16,19,22,25,28,31]undecaazacyclotetratriacontine-21,1′-cyclopentane]-15-carboxamide] ([NMeL]I[NMeA][Aze][NMeCha][Sar][hPhe(3,5-F2-4-CF3)][Hyp](Et)[Ac5c][NMeGly(cPent)][NMeD]-NMe2; lactam N-11 (inferred); C-terminus assumed), the “TGI (%)” value ([5]; 3 mg/kg once daily) is reported as 68%, the “TGI (%)” value ([5]; 6 mg/kg once daily) is reported as 92% and the “TGI (%)” value ([5]; 10 mg/kg once daily) is reported as 104%. The IC50 [1] was ≤ 20 nM, the IC50 [3, 6] was 0.65 nM and the IC50 ([3]; A549, NSCLC, KRAS G12S) was 0.25 nM. For the same compound, the IC50 ([3]; AGS, Stomach, KRAS G12D) was 0.48 nM, the IC50 ([3]; AsPC-1, Pancreas, KRAS G12D) was 0.84 nM and the IC50 ([3]; HEC-151, Endometrium, NRAS G12D) was 2.3 nM. For the same compound, the IC50 ([3]; KURAMOCHI, Ovary, KRAS Amp) was 2.63 nM, the IC50 ([3]; LS 180, Colon, KRAS G12D) was 1.32 nM and the IC50 [3, 7] was 1.81 nM. It also gave an IC50 ([3]; NCI-H441, NSCLC, KRAS G12V) of 0.89 nM, an IC50 ([3]; NCI-H929, Myeloma, NRAS G13D) of 4.62 nM and an IC50 ([3]; NOMO-1, AML, KRAS G13D) of 4.9 nM. The IC50 ([3]; PA-1, Ovary, NRAS G12D) was 1.16 nM and the IC50 ([3]; SW480, Colon, KRAS G12V) was 9.6 nM.

With CC[C@H](C)[C@@H]1NC(=O)CSC[C@@H](C(=O)N(C)C)N(C)C(=O)[C@H]([C@@H](C)CC)N(C)C(=O)C2(CCCC2)NC(=O)[C@@H]2CCCN2C(=O)[C@H](CCc2ccc(C(F)(F)F)c(Cl)c2)NC(=O)CN(C)C(=O)[C@H](Cc2ccc(C)cc2)N(C)C(=O)CN(C)C(=O)CN(C)C1=O [Compound 2173, (3S,9S,18S,24R,27S,33S)-18,27-bis[(2S)-butan-2-yl]-3-[2-[3-chloro-4-(trifluoromethyl)phenyl]ethyl]—N,N,7,10,13,16,25,28-octamethyl-9-[(4-methylphenyl)methyl]-2,5,8,11,14,17,20,26.,29,32-decaoxospiro[22-thia-1,4,7,10,13,16,19,25,28,31-decazabicyclo[31.3.0]hexatriacontane-30,1-cyclopentane]-24-carboxamide] ({CH2CO}-I[Sar][Sar][NMePhe(4-Me)][Sar][hPhe(3-Cl-4-CF3)]P[Ac5c][NMeI][NMeC]-NMe2; thioether N-10) the IC50 [1] was > 500 nM and the IC50 [2] was 6 nM.

With CCCOC[C@H]1C(=O)N(C)CC(=O)N[C@@H](CCc2ccc(C(F)(F)F)c(F)c2)C(=O)N2CCC[C@H]2C(=O)NC2(CCCC2)C(=O)N(C)[C@@H](C2CCCC2)C(=O)N(C)[C@H](C(=O)N(C)C)CSCC(=O)N(C)[C@@H](CC(C)C)C(=O)N[C@@H]([C@@H](C)CC)C(=O)N(C)[C@@H](C)C(=O)N2CC[C@H]2C(=O)N1C [Compound 2174, (3S,9S,12S,17S,20S,23S,29R,32S,38S)-20-[(2S)-butan-2-yl]-32-cyclopentyl-3-[2-[3-fluoro-4-(trifluoromethyl)phenyl]ethyl]-N,N,7,10,17,18,24,30,33-nonamethyl-23-(2-methylpropyl)-2,5,8,11,16,19,22,25,31,34,37-undecaoxo-9-(propoxymethyl)spiro[27-thia-1,4,7,10,15,18,21,24,30,33,36-undecazatricyclo[36.3.0.012,15]hentetracontane-35,1′-cyclopentane)-29-carboxamide] ({CH2CO}-[NMeL]I[NMeA][Aze][NMeS](Propyl)[Sar][hPhe(3-F,4-CF3)]P[Ac5c][NMeGly(cPent)][NMeC]-NMe2; thioether N-11) the IC50 [1] was > 500 nM and the IC50 [2] was 870 nM.

For CC[C@H](C)[C@@H]1NC(=O)[C@H](CC(C)C)N(C)C(=O)CSC[C@@H](C(=O)N(C)C)N(C)C(=O)[C@H](C2CCCC2)N(C)C(=O)C2(CCCC2)NC(=O)[C@@H]2CCCN2C(=O)[C@H](CCc2ccc(C(F)(F)F)c(Cl)c2)NC(=O)CN(C)C(=O)[C@H](CC2CCCCC2)N(C)C(=O)CN(C)C(=O)CN(C)C1=O [Compound 2175] ({CH2CO}-[NMeL]I[Sar][Sar][NMeCha][Sar][hPhe(3-Cl-4-CF3)]P[Ac5c][NMeGly(cPent)][NMeC]-NMe2; thioether N-11), the IC50 [1] was > 500 nM and the IC50 [2] was 180 nM.

For CCO[C@@H]1C[C@H]2C(=O)NC3(CCCC3)C(=O)N(C)[C@@H](C3CCCC3)C(=O)N(C)[C@H](C(=O)N(C)C)CSCC(=O)N(C)[C@@H](CC(C)C)C(=O)N[C@@H]([C@@H](C)CC)C(=O)N(C)[C@@H](C)C(=O)N3CC[C@H]3C(=O)N(C)[C@@H](CC3CCCCC3)C(=O)N(C)CC(=O)N[C@@H](CCc3cc(F)c(C(F)(F)F)c(F)c3)C(=O)N2C1 [Compound 2176, (3S,9S,12S,17S,20S,23S,29R,32S,38S,40R)-20-[(2S)-butan-2-yl]-9-(cyclohexylmethyl)-32-cyclopentyl-3-[2-[3,5-difluoro-4-(trifluoromethyl)phenyl]ethyl]-40-ethoxy-N,N,7,10,17,18,24,30,33-nonamethyl-23(2-methylpropyl)-2,5,8,11,16,19,22,25,31,34,37-undecaoxospiro[27-thia-1,4,7,10,15,18,21,24,30,33,36-undecazatricyclo[36.3.0.012,15]hentetracontane-35,1′-cyclopentane]-29-carboxamide] ({CH2CO}-[NMeL]I[NMeA][Aze][NMeCha][Sar][hPhe(3,5-F2-4-CF3)][Hyp](Et)[Ac5c][NMeGly(cPent)][NMeC]-NMe2; thioether N-11), the IC50 [1] was > 500 nM and the IC50 [2] was 120 nM.

With CC[C@H](C)[C@@H]1NC(=O)[C@H](CC(C)C)N(C)C(=O)CSC[C@@H](C(=O)N(C)C)N(C)C(=O)[C@H](C2CCCC2)N(C)C(=O)C2(CCCC2)NC(=O)[C@@H]2CCCN2C(=O)[C@H](CCc2ccc(C(F)(F)F)c(Cl)c2)NC(=O)CN(C)C(=O)[C@H](Cc2ccc(C)cc2)N(C)C(=O)[C@@H]2CCN2C(=O)[C@H](C)N(C)C1=O [Compound 2177] ({CH2CO}-[NMeL]I[NMeA][Aze][NMePhe(4-Me)][Sar][hPhe(3-Cl-4-CF3)]P[Ac5c][NMeGly(cPent)][NMeC]-NMe2; thioether N-11) the IC50 [1] was > 500 nM and the IC50 [2] was 250 nM.

In the case of CC[C@H](C)[C@@H]1NC(=O)[C@H](CC(C)C)N(C)C(=O)CSC[C@@H](C(=O)N(C)C)N(C)C(=O)[C@H]([C@@H](C)CC)N(C)C(=O)C2(CCCC2)NC(=O)[C@@H]2CCCN2C(=O)[C@H](CCc2ccc(C(F)(F)F)c(Cl)c2)NC(=O)CN(C)C(=O)[C@H](Cc2ccc(C)cc2)N(C)C(=O)CN(C)C(=O)CN(C)C1=O [Compound 2178] ({CH2CO}-[NMeL]I[Sar][Sar][NMePhe(4-Me)][Sar][hPhe(3-Cl-4-CF3)]P[Ac5c][NMeI][NMeC]-NMe2; thioether N-11), the IC50 [1] is reported as > 500 nM and the IC50 [2] is reported as 160 nM.

For CC[C@H](C)[C@@H]1NC(=O)[C@H](CC(C)C)N(C)C(=O)CSC[C@@H](C(=O)N(C)C)N(C)C(=O)[C@H](C2CCCC2)N(C)C(=O)C2(CCCC2)NC(=O)[C@@H]2CCCN2C(=O)[C@H](CCc2ccc(C(F)(F)F)c(F)c2)NC(=O)CN(C)C(=O)[C@H](C2CCCC2)N(C)C(=O)[C@@H]2CCN2C(=O)[C@H](C)N(C)C1=O [Compound 2179] ({CH2CO}-[NMeL]I[NMeA][Aze][NMeGly(cPent)][Sar][hPhe(3-F,4-CF3)]P[Ac5c][NMeGly(cPent)][NMeC]-NMe2; thioether N-11), the IC50 [1] was > 500 nM and the IC50 [2] was 540 nM.
